Results taken from patent publication US10828301B2, “2,4-pyrimidinediamine compounds and their uses” (Rigel Pharmaceuticals, Inc, priority 2002, dated 2020).

Assays:
[1] = test system: cultured human mast cells (CHMC); experiment: CHMC low cell density IgE activation: tryptase and LTC4 assays; format: cell-based; settings: read-out: CHMC anti-IgE Tryptase
Outline: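 Degranulation measured after 30 min anti-IgE challenge at 37° C of CHMC plated at 1000-1500 cells/well following 1 h preincubation. Readouts: LTC4 by ELISA on donor-specific diluted supernatants, and tryptase activity from a 30 min room-temperature substrate reaction.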

[2] = test system: cultured human mast cells (CHMC); experiment: CHMC low cell density ionomycin activation: tryptase assay; format: cell-based; settings: read-out: CHMC Ionomycin Tryptase
[3] = Homo sapiens, Mast cell, Low Density CHMC, anti-IgE activation, tryptase readout
[4] = Homo sapiens, Mast cell, Low Density CHMC, ionomycin activation, tryptase readout

## Oc1cccc(Nc2nc(NCc3ccc4c(c3)OCCO4)ncc2F)c1 [Compound R945168, N2-(2,3-Dihydro-1,4-benzodioxin-6-ylmethyl)-5-fluoro-N4-(3-hydroxyphenyl)-2,4-pyrimidinediamine]
[1]; [3]
  IC50: 10 µM
[2]; [4]
  IC50: > 10 µM

## O=C1CCNC2=COc3ccc(Nc4nc(Nc5cccc(O)c5)ncc4F)cc3N12 [Compound R945237, 5-Fluoro-N2-(3-hydroxyphenyl)-N4-[1-oxo-1,2,3,6-tetrahydropyrimido[2,1-c][1,4]benzoxazin-9-yl]-2,4-pyrimidinediamine]
[1]; [3]
  IC50: 0.461 µM
[2]; [4]
  IC50: > 10 µM

## Fc1cnc(Nc2ccc(OCc3ccccc3)c(C(F)(F)F)c2)nc1Nc1ccc(OCc2ccccc2)c(C(F)(F)F)c1 [Compound R950090, N2,N4-Bis(4-benzyloxy-3-trifluoromethylphenyl)-5-fluoro-2,4-pyrimidinediamine]
[1]; [3]
  IC50: > 10 µM
[2]; [4]
  IC50: > 10 µM

## N#Cc1cc(Nc2ncc(F)c(Nc3ccc(O)c(C#N)c3)n2)ccc1O [Compound R950092, N2,N4-Bis(3-cyano-4-hydroxyphenyl)-5-fluoro-2,4-pyrimidinediamine]
[1]; [3]
  IC50: > 10 µM
[2]; [4]
  IC50: > 10 µM

## Oc1ccc(Nc2ncc(F)c(Nc3ccc(O)c(C(F)(F)F)c3)n2)cc1C(F)(F)F [Compound R950093, N2,N4-Bis(4-hydroxy-3-trifluoromethylphenyl)-5-fluoro-2,4-pyrimidinediamine]
[1]; [3]
  IC50: 0.64 µM
[2]; [4]
  IC50: 5.55 µM

## CC(C)(C)OC(=O)Nc1cccc(Nc2ncc(F)c(Nc3cccc(NC(=O)OC(C)(C)C)c3)n2)c1 [Compound R950108, N2,N4-Bis[3-(tert-butoxycarbonylamino)phenyl]-5-fluoro-2,4-pyrimidinediamine]
[1]; [3]
  IC50: 2.08 µM
[2]; [4]
  IC50: > 10 µM

## CC(C)(C)OC(=O)Nc1ccc(Nc2ncc(F)c(Nc3ccc(NC(=O)OC(C)(C)C)cc3)n2)cc1 [Compound R950120, N2,N4-Bis[4-(tert-butoxycarbonylamino)phenyl]-5-fluoro-2,4-pyrimidinediamine]
[1]; [3]
  IC50: 3 µM
[2]; [4]
  IC50: > 10 µM

## Nc1cc(Nc2ccnc(Nc3ccc(Nc4ccccc4)c(N)c3)n2)ccc1Nc1ccccc1 [Compound R950123, N2,N4-Bis[3-amino-4-(N-phenylamino)-phenyl]-2,4-pyrimidinediamine]
[1]; [3]
  IC50: 3.25 µM
[2]; [4]
  IC50: 8.45 µM

## Nc1cc(Nc2ncc(F)c(Nc3ccc(Nc4ccccc4)c(N)c3)n2)ccc1Nc1ccccc1 [Compound R950125, N2,N4-Bis[3-amino-4-(N-phenylamino)-phenyl]-5-fluoro-2,4-pyrimidinediamine]
[1]; [3]
  IC50: 1.38 µM
[2]; [4]
  IC50: 6.3 µM

## Cc1ccc(Nc2ncc(F)c(Nc3ccc(C)c(N)c3)n2)cc1N [Compound R950129, N2,N4-Bis(3-amino-4-methylphenyl)-5-fluoro-2,4-pyrimidinediamine]
[1]; [3]
  IC50: 0.665 µM
[2]; [4]
  IC50: > 10 µM

## Nc1cc(Cl)cc(Nc2ccnc(Nc3cc(N)cc(Cl)c3)n2)c1 [Compound R950133, N2,N4-Bis(3-amino-5-chlorophenyl)-2,4-pyrimidinediamine]
[1]; [3]
  IC50: 2.2 µM
[2]; [4]
  IC50: > 10 µM

## COC(=O)c1cc(N)cc(Nc2ncc(F)c(Nc3cc(N)cc(C(=O)OC)c3)n2)c1 [Compound R950134, N2,N4-Bis(3-amino-5-methoxycarbonylphenyl)-5-fluoro-2,4-pyrimidinediamine]
[1]; [3]
  IC50: 1.88 µM
[2]; [4]
  IC50: > 10 µM

## Nc1cc(Nc2ncc(F)c(Nc3ccc([N+](=O)[O-])c(N)c3)n2)ccc1[N+](=O)[O-] [Compound R950135, N2,N4-Bis(3-amino-4-nitrophenyl)-5-fluoro-2,4-pyrimidinediamine]
[1]; Homo sapiens, Mast cell
  IC50: 0.85 µM
[2]; Homo sapiens, Mast cell
  IC50: > 10 µM

## CCOc1ccc(Nc2ncc(F)c(Nc3ccc(OCC)c(N)c3)n2)cc1N [Compound R950139, N2,N4-Bis(3-amino-4-ethoxyphenyl)-5-fluoro-2,4-pyrimidinediamine]
[1]; [3]
  IC50: 1.38 µM
[2]; [4]
  IC50: > 10 µM

## Nc1cc(Nc2ncc(F)c(Nc3cc(N)cc(C(F)(F)F)c3)n2)cc(C(F)(F)F)c1 [Compound R950140, N2,N4-Bis(3-amino-5-trifluoromethylphenyl)-5-fluoro-2,4-pyrimidinediamine]
[1]; [3]
  IC50: 2.83 µM
[2]; [4]
  IC50: > 10 µM

## O=[N+]([O-])c1cc(Nc2ncc(F)c(Nc3ccc(F)c([N+](=O)[O-])c3)n2)ccc1F [Compound R950148, N2,N4-Bis(4-fluoro-3-nitrophenyl)-5-fluoro-2,4-pyrimidinediamine]
[1]; Homo sapiens, Mast cell
  IC50: 2.27 µM
[2]; Homo sapiens, Mast cell
  IC50: > 10 µM

## O=[N+]([O-])c1cc(Nc2ncc(F)c(Nc3ccc(Cl)c([N+](=O)[O-])c3)n2)ccc1Cl [Compound R950149, N2,N4-Bis(4-chloro-3-nitrophenyl)-5-fluoro-2,4-pyrimidinediamine]
[1]; Homo sapiens, Mast cell
  IC50: 10 µM
[2]; Homo sapiens, Mast cell
  IC50: > 10 µM

## O=[N+]([O-])c1cc(Nc2ccnc(Nc3ccc(Cl)c([N+](=O)[O-])c3)n2)ccc1Cl [Compound R950154, N2,N4-Bis(4-chloro-3-nitrophenyl)-2,4-pyrimidinediamine]
[1]; Homo sapiens, Mast cell
  IC50: 2.08 µM
[2]; Homo sapiens, Mast cell
  IC50: > 10 µM

## Nc1cc(Nc2ncc(F)c(Nc3ccc(F)c(N)c3)n2)ccc1F [Compound R950159, N2,N4-Bis(3-amino-4-fluorophenyl)-5-fluoro-2,4-pyrimidinediamine]
[1]; [3]
  IC50: 0.61 µM
[2]; [4]
  IC50: > 10 µM

## O=[N+]([O-])c1cccc(Nc2ncc(F)c(Nc3cccc([N+](=O)[O-])c3)n2)c1 [Compound R950160, N2,N4-Bis(3-nitrophenyl)-5-fluoro-2,4-pyrimidinediamine]
[1]; Homo sapiens, Mast cell
  IC50: 1 µM
[2]; Homo sapiens, Mast cell
  IC50: > 10 µM

## COC(=O)c1cc2cc(Nc3ncc(F)c(Nc4cccc(N)c4)n3)ccc2o1 [Compound R950162, N4-(3-Aminophenyl)-5-fluoro-N2-(2-methoxycarbonylbenzofurane-5-yl)-2,4-pyrimidinediamine]
[1]; [3]
  IC50: 0.434 µM
[2]; [4]
  IC50: > 10 µM

## Nc1cccc(Nc2nc(Nc3cccc(O)c3)ncc2F)c1 [Compound R950163, N4-(3-Aminophenyl)-5-fluoro-N2-(3-hydroxyphenyl)-2,4-pyrimidinediamine]
[1]; [3]
  IC50: 0.874 µM
[2]; [4]
  IC50: > 10 µM

## CC(C)Oc1cccc(Nc2ncc(F)c(Nc3cccc(N)c3)n2)c1 [Compound R950164, N4-(3-Aminophenyl)-5-fluoro-N2-(3-isopropoxyphenyl)-2,4-pyrimidinediamine]
[1]; [3]
  IC50: 1.89 µM
[2]; [4]
  IC50: > 10 µM

## CC(C)Oc1ccc(Nc2ncc(F)c(Nc3cccc(N)c3)n2)cc1 [Compound R950165, N4-(3-Aminophenyl)-5-fluoro-N2-(4-isopropoxyphenyl)-2,4-pyrimidinediamine]
[1]; [3]
  IC50: 1.29 µM
[2]; [4]
  IC50: > 10 µM

## CC(C)Nc1cccc(Nc2ncc(F)c(Nc3cccc(NC(C)C)c3)n2)c1 [Compound R950166, N2,N4-Bis[3-(N-isopropyl)aminophenyl]-5-fluoro-2,4-pyrimidinediamine]
[1]; [3]
  IC50: 1.89 µM
[2]; [4]
  IC50: > 10 µM

## CC(C)(C)OC(=O)C=Nc1cccc(Nc2ncc(F)c(Nc3cccc(N=CC(=O)OC(C)(C)C)c3)n2)c1 [Compound R950177, N2,N4-Bis(3-tert-butoxycarbonylmethyleneaminophenyl)-5-fluoro-2,4-pyrimidinediamine]
[1]; [3]
  IC50: 2.36 µM
[2]; [4]
  IC50: 8.43 µM

## CC(C)(C)OC(=O)C=Nc1cccc(Nc2ncc(F)c(Nc3cccc(N)c3)n2)c1 [Compound R950178, N4-(3-Aminophenyl)-N2-(3-tert-butoxycarbonylmethyleneaminophenyl)-5-fluoro-2,4-pyrimidinediamine]
[1]; [3]
  IC50: 0.688 µM
[2]; [4]
  IC50: > 10 µM

## CC(C)(C)OC(=O)C=Nc1cccc(Nc2nc(Nc3cccc(N)c3)ncc2F)c1 [Compound R950179, N2-(3-Aminophenyl)-N4-(3-tert-butoxycarbonylmethyleneaminophenyl)-5-fluoro-2,4-pyrimidinediamine]
[1]; [3]
  IC50: 0.955 µM
[2]; [4]
  IC50: > 10 µM

## CN(C)c1cccc(Nc2ncc(F)c(Nc3cccc(N(C)C)c3)n2)c1 [Compound R950182, N2,N4-Bis[3-(dimethylamino)phenyl]-5-fluoro-2,4-pyrimidinediamine]
[1]; [3]
  IC50: 0.627 µM
[2]; [4]
  IC50: > 10 µM

## CCOC(=O)C=Nc1cccc(Nc2nc(N(CC(=O)OCC)c3cccc(N=CC(=O)OCC)c3)ncc2F)c1 [Compound R950183, N2,N4-Bis(3-ethoxycarbonylmethyleneaminophenyl)-N2-(ethoxycarbonylmethyl)-5-fluoro-2,4-pyrimidinediamine]
[1]; [3]
  IC50: 4.8 µM
[2]; [4]
  IC50: > 10 µM

## CCOC(=O)C=Nc1cccc(Nc2ncc(F)c(Nc3cccc(N=CC(=O)OCC)c3)n2)c1 [Compound R950184, N2,N4-Bis(3-ethoxycarbonylmethyleneaminophenyl)-5-fluoro-2,4-pyrimidinediamine]
[1]; [3]
  IC50: 2.22 µM
[2]; [4]
  IC50: > 10 µM

## CCOC(=O)C=Nc1cccc(Nc2ncc(F)c(Nc3ccc4c(c3)OCCO4)n2)c1 [Compound R950186, N4-(3,4-Ethylenedioxyphenyl)-N2-(3-ethoxycarbonylmethyleneaminophenyl)-5-fluoro-2,4-pyrimidinediamine]
[1]; [3]
  IC50: 0.558 µM
[2]; [4]
  IC50: > 10 µM

## CNc1ncc(F)c(Nc2ccc3c(c2)OCCO3)n1 [Compound R950189]
[1]; Low Density CHMC, anti-IgE activation, tryptase readout
  IC50: 10 µM
[2]; Low Density CHMC, ionomycin activation, tryptase readout
  IC50: > 10 µM

## Fc1cnc(N=Cc2ccoc2)nc1Nc1ccc2c(c1)OCCO2 [Compound R950203, N4-(3,4-Ethylenedioxyphenyl)-N2-(3-furanylmethylene)-5-fluoro-2,4-pyrimidinediamine]
[1]; [3]
  IC50: 9.04 µM
[2]; [4]
  IC50: > 10 µM

## COc1ccc(OCCNc2ncc(F)c(Nc3ccc4c(c3)OCCO4)n2)cc1 [Compound R950204, N4-(3,4-Ethylenedioxyphenyl)-5-fluoro-N2-[(4-methoxyphenyloxy)ethyl]-2,4-pyrimidinediamine]
[1]; [3]
  IC50: 6.29 µM
[2]; [4]
  IC50: > 10 µM
